From PubChem BioAssay AID1963866 (Molecular Pharmacology Branch, DTP, NCI, 2024)

System: PDC KRAS tumor spheroids with HUVEC/MSC, viability
Test: Anticancer human tumor 349418-098-R-PDC patient-derived lung adenocarcinoma cell line growth inhibition [KRAS2]
Settings: for IC50: curve of first compound; for viability, T/C: stronger effect = lower value
Outline: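 KRAS-mutant tumor cells were grown as spheroids with HUVEC endothelial cells and human MSCs as stroma. Targeted agents were tested alone and with KRAS pathway inhibitors. Doses started at or near clinical Cmax, or 10 microM, descending half-log.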

[1] = second compound 0.1 µM, first compound 0.000316 µM
[2] = second compound 0.1 µM, first compound 0.001 µM
[3] = second compound 0.1 µM, first compound 0.00316 µM
[4] = second compound 0.1 µM, first compound 0.01 µM
[5] = second compound 0.1 µM, first compound 0.0316 µM
[6] = second compound 0.316 µM, first compound 0.000316 µM
[7] = second compound 0.316 µM, first compound 0.001 µM
[8] = second compound 0.316 µM, first compound 0.00316 µM
[9] = second compound 0.316 µM, first compound 0.01 µM
[10] = second compound 0.316 µM, first compound 0.0316 µM
[11] = second compound 1 µM, first compound 0.000316 µM
[12] = second compound 1 µM, first compound 0.001 µM
[13] = second compound 1 µM, first compound 0.00316 µM
[14] = second compound 1 µM, first compound 0.01 µM
[15] = second compound 1 µM, first compound 0.0316 µM
[16] = second compound 3.16 µM, first compound 0.000316 µM
[17] = second compound 3.16 µM, first compound 0.001 µM
[18] = second compound 3.16 µM, first compound 0.00316 µM
[19] = second compound 3.16 µM, first compound 0.01 µM
[20] = second compound 3.16 µM, first compound 0.0316 µM
[21] = second compound 10 µM, first compound 0.000316 µM
[22] = second compound 10 µM, first compound 0.001 µM
[23] = second compound 10 µM, first compound 0.00316 µM
[24] = second compound 10 µM, first compound 0.01 µM
[25] = second compound 10 µM, first compound 0.0316 µM
[26] = second compound 0.1 µM, first compound 0.1 µM
[27] = second compound 0.316 µM, first compound 0.1 µM
[28] = second compound 1 µM, first compound 0.1 µM
[29] = second compound 3.16 µM, first compound 0.1 µM
[30] = second compound 10 µM, first compound 0.1 µM
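Further: spheroids exposed to compounds for seven days before readout.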

In the case of `CC(=O)Nc1cccc(-n2c(=O)n(C3CC3)c(=O)c3c(Nc4ccc(I)cc4F)n(C)c(=O)c(C)c32)c1` + CC1OCC2(CCN(c3cnc(Sc4ccnc(N)c4Cl)c(N)n3)CC2)C1N, the IC50 (second compound 0.1 µM) is reported as under 0.1 nM, the IC50 (second compound 0.316 µM) is reported as under 0.1 nM and the IC50 (second compound 1 µM) is reported as under 0.1 nM. The IC50 (second compound 3.16 µM) was under 0.1 nM, the IC50 (second compound 10 µM) was under 0.1 nM and the viability, T/C (second compound 0.1 µM, first compound 0.0001 µM) was 25%. For the same molecule, the viability, T/C [1] was 10.6%, the viability, T/C [2] was 8.26% and the viability, T/C [3] was 7.14%. It also gave a viability, T/C [4] of 6.71%, a viability, T/C [5] of 4.89% and a viability, T/C (second compound 0.316 µM, first compound 0.0001 µM) of 13.9%. It also gave a viability, T/C [6] of 9.13%, a viability, T/C [7] of 6.31% and a viability, T/C [8] of 6.44%. The viability, T/C [9] was 5.73%, the viability, T/C [10] was 4.97% and the viability, T/C (second compound 1 µM, first compound 0.0001 µM) was 12.5%. It also gave a viability, T/C [11] of 6.75%, a viability, T/C [12] of 5.3% and a viability, T/C [13] of 5.39%. It also gave a viability, T/C [14] of 5.41%, a viability, T/C [15] of 4.31% and a viability, T/C (second compound 3.16 µM, first compound 0.0001 µM) of 16.2%. It also gave a viability, T/C [16] of 6.1%, a viability, T/C [17] of 5.56% and a viability, T/C [18] of 4.05%. The viability, T/C [19] was 3.76%, the viability, T/C [20] was 3.53% and the viability, T/C (second compound 10 µM, first compound 0.0001 µM) was 18.9%. For the same molecule, the viability, T/C [21] was 6.01%, the viability, T/C [22] was 3.71% and the viability, T/C [23] was 3.71%. It also gave a viability, T/C [24] of 3.6% and a viability, T/C [25] of 3.62%.
`CN(C)C/C=C/C(=O)Nc1cc2c(Nc3ccc(F)c(Cl)c3)ncnc2cc1O[C@H]1CCOC1` + CC1OCC2(CCN(c3cnc(Sc4ccnc(N)c4Cl)c(N)n3)CC2)C1N showed an IC50 (second compound 0.1 µM) of over 100 nM, an IC50 (second compound 0.316 µM) of over 100 nM and an IC50 (second compound 1 µM) of over 100 nM. The IC50 (second compound 3.16 µM) was over 100 nM, the IC50 (second compound 10 µM) was over 100 nM and the viability, T/C [1] was 84.1%. For the same molecule, the viability, T/C [2] was 95.7%, the viability, T/C [3] was 105% and the viability, T/C [4] was 114%. The viability, T/C [5] was 119%, the viability, T/C [26] was 103% and the viability, T/C [6] was 106%. For the same molecule, the viability, T/C [7] was 105%, the viability, T/C [8] was 109% and the viability, T/C [9] was 110%. It also gave a viability, T/C [10] of 117%, a viability, T/C [27] of 115% and a viability, T/C [11] of 92.3%. The viability, T/C [12] was 111%, the viability, T/C [13] was 97.4% and the viability, T/C [14] was 107%. For the same molecule, the viability, T/C [15] was 116%, the viability, T/C [28] was 105% and the viability, T/C [16] was 99.1%. The viability, T/C [17] was 107%, the viability, T/C [18] was 105% and the viability, T/C [19] was 102%. It also gave a viability, T/C [20] of 96%, a viability, T/C [29] of 88.1% and a viability, T/C [21] of 99.2%. The viability, T/C [22] was 117%, the viability, T/C [23] was 108% and the viability, T/C [24] was 110%. It also gave a viability, T/C [25] of 104% and a viability, T/C [30] of 95.8%.
With `COC(=O)c1ccc2c(C(=Nc3ccc(N(C)C(=O)CN4CCN(C)CC4)cc3)c3ccccc3)c(O)[nH]c2c1` + CC1OCC2(CCN(c3cnc(Sc4ccnc(N)c4Cl)c(N)n3)CC2)C1N the IC50 (second compound 0.1 µM) was 1450 nM, the IC50 (second compound 0.316 µM) was 1460 nM and the IC50 (second compound 1 µM) was 1230 nM. The IC50 (second compound 3.16 µM) was 1060 nM, the IC50 (second compound 10 µM) was 600 nM and the viability, T/C [5] was 100%. For the same molecule, the viability, T/C [26] was 104%, the viability, T/C (second compound 0.1 µM, first compound 0.316 µM) was 82.3% and the viability, T/C (second compound 0.1 µM, first compound 1 µM) was 68.1%. For the same molecule, the viability, T/C (second compound 0.1 µM, first compound 3.16 µM) was 12.1%, the viability, T/C (second compound 0.1 µM, first compound 10 µM) was 15.3% and the viability, T/C [10] was 102%. The viability, T/C [27] was 93.3%, the viability, T/C (second compound 0.316 µM, first compound 0.316 µM) was 92.5% and the viability, T/C (second compound 0.316 µM, first compound 1 µM) was 68.7%. It also gave a viability, T/C (second compound 0.316 µM, first compound 3.16 µM) of 7.79%, a viability, T/C (second compound 0.316 µM, first compound 10 µM) of 14.9% and a viability, T/C [15] of 82.6%. It also gave a viability, T/C [28] of 114%, a viability, T/C (second compound 1 µM, first compound 0.316 µM) of 71.5% and a viability, T/C (second compound 1 µM, first compound 1 µM) of 63.6%. The viability, T/C (second compound 1 µM, first compound 3.16 µM) was 12.2%, the viability, T/C (second compound 1 µM, first compound 10 µM) was 12.3% and the viability, T/C [20] was 79.2%. The viability, T/C [29] was 101%, the viability, T/C (second compound 3.16 µM, first compound 0.316 µM) was 75.3% and the viability, T/C (second compound 3.16 µM, first compound 1 µM) was 54.3%. It also gave a viability, T/C (second compound 3.16 µM, first compound 3.16 µM) of 14%, a viability, T/C (second compound 3.16 µM, first compound 10 µM) of 11.5% and a viability, T/C [25] of 81.2%. It also gave a viability, T/C [30] of 75.4%, a viability, T/C (second compound 10 µM, first compound 0.316 µM) of 61.5% and a viability, T/C (second compound 10 µM, first compound 1 µM) of 42.2%. For the same molecule, the viability, T/C (second compound 10 µM, first compound 3.16 µM) was 14.8% and the viability, T/C (second compound 10 µM, first compound 10 µM) was 7.52%.
